According to patent US20060052413A1, “Novel piperidine derivatives as modulators of chemokine receptor ccr5” (priority 2002, published 2006):

Target: recombinant human CCR5 receptor (Homo sapiens, UniProt P51681)
Assay: MIP-1α radioligand binding assay (scintillation proximity), CHO cell membranes
Settings: displacement of 0.1 nM iodinated MIP-1α; negative log10 of IC50; average if tested more than once
Experimental: The ability of compounds to inhibit the binding of MIP-1α was assessed by an in vitro radioligand binding assay. Membranes were prepared from Chinese hamster ovary cells which expressed the recombinant human CCR5 receptor. These membranes were incubated with 0.1 nM iodinated MIP-1α, scintillation proximity beads and various concentrations of the compounds of the invention in 96-well plates. The amount of iodinated MIP-1α bound to the receptor was determined by scintillation counting. Competition curves were obtained for compounds and the concentration of compound which displaced 50% of bound iodinated MIP-1α was calculated (IC50).
In Table II the results are presented as Pic50 values. A Pic50 value is the negative log (to base 10) of the IC50 result, so an IC50 of 1 μM (that is 1×10^−6M) gives a Pic50 of 6. If a compound was tested more than once then the data below is an average of the probative tests results.

Sequence of recombinant human CCR5 receptor (P51681 whole entry): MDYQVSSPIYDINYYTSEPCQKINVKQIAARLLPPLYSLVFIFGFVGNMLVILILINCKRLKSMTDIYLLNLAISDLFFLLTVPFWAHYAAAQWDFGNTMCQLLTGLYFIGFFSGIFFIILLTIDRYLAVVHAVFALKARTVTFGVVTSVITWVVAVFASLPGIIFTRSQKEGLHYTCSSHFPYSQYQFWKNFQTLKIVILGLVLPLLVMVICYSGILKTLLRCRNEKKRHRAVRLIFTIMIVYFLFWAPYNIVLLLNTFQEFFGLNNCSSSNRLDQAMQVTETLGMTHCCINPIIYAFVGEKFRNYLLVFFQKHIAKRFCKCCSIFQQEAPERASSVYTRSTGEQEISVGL

- IC50: 0.0977 µM
SMILES: CCS(=O)(=O)N1CCN(C(CCN2CCC(CCCc3ccccc3)CC2)c2ccccc2)CC1 (stereo not shown) [Compound 3]
